From ChEMBL document CHEMBL6134780, “Halogenated retinoid derivatives as dual RARα and RXRα modulators for treating acute promyelocytic leukemia cells” (Eur J Med Chem, 2024) come the findings set out here.

In test [1] the test system is NB-4. The test can be described thus: Cell cycle arrest in human NB4 cells assessed as accumulation of cells at G2/M phase at higher concentration by DAPI staining based flow cytometric analysis. It counts as functional.
Test [2] deals with ATRA-resistant NB4-LR2. Nature of the test: Cell cycle arrest in human ATRA-resistant NB4-LR2 cells assessed as accumulation of cells at G2/M phase at 2 uM incubated for 3 to 12 hrs by DAPI staining based flow cytometric analysis. Format: functional. To be noted: time 3-12 hrs.
In test [3] the target is T1, Retinoic acid receptor alpha (Homo sapiens, UniProt P10276).
T1 sequence (P10276 whole entry): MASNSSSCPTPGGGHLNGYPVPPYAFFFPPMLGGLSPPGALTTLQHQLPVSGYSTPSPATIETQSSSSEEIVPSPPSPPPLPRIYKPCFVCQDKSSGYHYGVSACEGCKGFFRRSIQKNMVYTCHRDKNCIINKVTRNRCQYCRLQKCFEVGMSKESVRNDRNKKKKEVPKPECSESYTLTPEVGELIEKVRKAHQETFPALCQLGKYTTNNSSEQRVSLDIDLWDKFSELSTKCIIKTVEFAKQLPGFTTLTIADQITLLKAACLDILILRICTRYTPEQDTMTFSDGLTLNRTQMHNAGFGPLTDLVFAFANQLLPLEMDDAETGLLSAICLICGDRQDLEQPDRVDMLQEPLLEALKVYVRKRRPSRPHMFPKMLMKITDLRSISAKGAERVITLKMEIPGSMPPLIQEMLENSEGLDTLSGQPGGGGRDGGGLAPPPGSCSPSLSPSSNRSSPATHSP
The test can be described thus: Binding affinity to N-terminal His-tagged human RARalpha LBD extracted from Escherichia coli BL21 (DE3) cells assessed as dissociation constant by ITC analysis. In general terms: In ITC the heat of successive injections is recorded.

Test [4] concerns NB-4. Nature of the test: Cell cycle arrest in human NB4 cells assessed as accumulation of cells at S phase at 2 uM incubated for 24 hrs by DAPI staining based flow cytometric analysis (reference value: 26 %). It counts as functional. For orientation: A flow cytometer gives signals particle by particle.
The nature of test [5]: Cell cycle arrest in human ATRA-resistant NB4-LR2 cells assessed as accumulation of cells at S phase at 1 uM incubated for 24 hrs by DAPI staining based flow cytometric analysis (reference value: 21 %). It counts as functional.
Test [6] can be described thus: Cell cycle arrest in human ATRA-resistant NB4-LR2 cells assessed as accumulation of cells at G0/G1 phase at 2 uM incubated for 24 hrs by DAPI staining based flow cytometric analysis (reference value: 42 %). Format: functional.
Test [7] has as its system NB-4. The test can be described thus: Cell cycle arrest in human NB4 cells transfected with pLVX-shRNA2-negative control assessed as accumulation of cells at G0/G1 phase at 2 uM incubated for 12 hrs by DAPI staining based flow cytometric analysis (reference value: 46 %). It counts as functional.
The subject of test [8] is NB-4. Nature of the test: Cell cycle arrest in human NB4 cells assessed as accumulation of cells at sub-G1 phase at 1 uM incubated for 24 hrs by DAPI staining based flow cytometric analysis (reference value: 3 %). It counts as functional.
Test [9] relates to NB-4. The test can be described thus: Induction of apoptosis in human NB4 cells assessed as late apoptotic cells at 1 uM incubated for 24 hrs by Annexin V-FITC/PI staining based flow cytometric analysis (reference value: 2.23 %). It counts as functional.
In test [10] the test system is NB-4. The test can be described thus: Cell cycle arrest in human NB4 cells assessed as accumulation of cells at sub-G1 phase at 0.5 uM incubated for 24 hrs by DAPI staining based flow cytometric analysis (reference value: 3 %). It counts as functional.
The subject of test [11] is NB-4. The test can be described thus: Cell cycle arrest in human NB4 cells transfected with pLVX-shRXRalpha plasmid assessed as accumulation of cells at G2/M phase at 1 uM incubated for 12 hrs by DAPI staining based flow cytometric analysis (reference value: 17 %). Format: functional.
Test [12] is described as follows: Cell cycle arrest in human ATRA-resistant NB4-LR2 cells assessed as accumulation of cells at G0/G1 phase at 0.5 uM incubated for 24 hrs by DAPI staining based flow cytometric analysis (reference value: 42 %). It counts as functional.
Test [13] has as its system NB-4. Nature of the test: Cell cycle arrest in human NB4 cells assessed as accumulation of cells at G2/M phase at 2 uM incubated for 24 hrs by DAPI staining based flow cytometric analysis (reference value: 23 %). It counts as functional.
A short description of test [14]: Cell cycle arrest in human ATRA-resistant NB4-LR2 cells assessed as accumulation of cells at G2/M phase at 1 uM incubated for 24 hrs by DAPI staining based flow cytometric analysis (reference value: 25 %). It counts as functional.
A short description of test [15]: Cell cycle arrest in human ATRA-resistant NB4-LR2 cells assessed as accumulation of cells at G2/M phase at 0.5 uM incubated for 24 hrs by DAPI staining based flow cytometric analysis (reference value: 25 %). Format: functional.
A short description of test [16]: Cell cycle arrest in human ATRA-resistant NB4-LR2 cells assessed as accumulation of cells at G0/G1 phase at 2 uM incubated for 6 hrs by DAPI staining based flow cytometric analysis (reference value: 57 %). It counts as functional.
In test [17] the test system is NB-4. The test can be described thus: Cell cycle arrest in human NB4 cells assessed as accumulation of cells at S phase at 2 uM incubated for 6 hrs by DAPI staining based flow cytometric analysis (reference value: 20 %). Format: functional.
In test [18] the test system is NB-4. Nature of the test: Cell cycle arrest in human NB4 cells transfected with pLVX-shPML-RARalpha plasmid assessed as accumulation of cells at S phase at 2 uM incubated for 12 hrs by DAPI staining based flow cytometric analysis (reference value: 19 %). Format: functional.
In test [19] the test system is NB-4. The test can be described thus: Cell cycle arrest in human NB4 cells assessed as accumulation of cells at G2/M phase at 0.5 uM incubated for 24 hrs by DAPI staining based flow cytometric analysis (reference value: 23 %). It counts as functional.
Test [20] is described as follows: Cell cycle arrest in human ATRA-resistant NB4-LR2 cells assessed as accumulation of cells at sub-G1 phase at 2 uM incubated for 6 hrs by DAPI staining based flow cytometric analysis (reference value: 9 %). It counts as functional.
Test [21] concerns NB-4. The test can be described thus: Cell cycle arrest in human NB4 cells transfected with pLVX-shRXRalpha plasmid assessed as accumulation of cells at sub-G1 phase at 1 uM incubated for 12 hrs by DAPI staining based flow cytometric analysis (reference value: 10 %). Format: functional.
Test [22] deals with NB-4. The test can be described thus: Cell cycle arrest in human NB4 cells assessed as accumulation of cells at G2/M phase at 2 uM incubated for 6 hrs by DAPI staining based flow cytometric analysis (reference value: 21 %). Format: functional.
Test [23] in a line: Cell cycle arrest in human ATRA-resistant NB4-LR2 cells assessed as accumulation of cells at S phase at 0.5 uM incubated for 24 hrs by DAPI staining based flow cytometric analysis (reference value: 21 %). Format: functional.
For test [24], the system named is NB-4. Nature of the test: Cell cycle arrest in human NB4 cells transfected with pLVX-shPML-RARalpha plasmid assessed as accumulation of cells at sub-G1 phase at 2 uM incubated for 12 hrs by DAPI staining based flow cytometric analysis (reference value: 21 %). It counts as functional.
Test [25] concerns NB-4. The test can be described thus: Cell cycle arrest in human NB4 cells transfected with pLVX-shRXRalpha plasmid assessed as accumulation of cells at G0/G1 phase at 1 uM incubated for 12 hrs by DAPI staining based flow cytometric analysis (reference value: 53 %). It counts as functional.
In test [26] the test system is NB-4. The test can be described thus: Cell cycle arrest in human NB4 cells transfected with pLVX-shRNA2-negative control assessed as accumulation of cells at G2/M phase at 2 uM incubated for 12 hrs by DAPI staining based flow cytometric analysis (reference value: 24 %). It counts as functional.
For test [27], the system named is NB-4. The test can be described thus: Cell cycle arrest in human NB4 cells assessed as accumulation of cells at S phase at 1 uM incubated for 12 hrs by DAPI staining based flow cytometric analysis (reference value: 20 %). It counts as functional.

Active and inactive are the calls of the source. No cut-off for these calls is given here.

As for `Cc1cc2c(cc1C(=O)/C(Br)=C\c1ccc(C(=O)O)cc1)C(C)(C)CCC2(C)C`, the outcome in [1] and in test [2] was Active.

A word on the Kd: it is the equilibrium constant for the complex coming apart. Regarding `Cc1cc2c(cc1C(=O)/C(Br)=C/c1ccc(C(=O)O)cc1)C(C)(C)CCC2(C)C`, the Kd in [3] came out at 1080 nM. Besides, the Activity came out at 19% in test [4]; 18% in test [5]; 34% in [6]; 30% in test [7]; 8% in test [8]; 18.68% in test [9]. The Activity in test [10] was found to be 5%; in test [11] it was 45%; in [12] it was 37%; in test [13], 37%; in test [14], 30%; in test [15], 33%. Also, the Activity came out at 45% in [16]; 27% in [17]; 11% in test [18]; 26% in test [19]; 22% in test [20]; 11% in test [21]. The Activity in test [22] is given as 40%; in test [23], 12%; in [24], 27%; in test [25] it was 36%; in test [26] it was 44%; in test [27], 13%.
